Values of other authors in article PMC10097024, “Cytotoxic and Antibacterial Prenylated Acylphloroglucinols from Hypericum olympicum L” (Plants, 2023).
In brackets after ≈: the same amount, converted by molar mass. Several values for one entry are separate records, joined by “and”; a condition that tells them apart may be missing. Equal entries are not always repeated. Where two headings read alike, the source gives them in different places.

Assays:
E. faecalis = conditions: cited from earlier work
S. aureus = conditions: cited from earlier work
leukemia U937 cells = conditions: lowest IC50 value; cited from earlier work
K-562 cells = conditions: K-562; cited from earlier work
[1] = test system: prostate cancer cell PC-3; conditions: cited from earlier work
[2] = test system: Corynebacterium diphtherie; conditions: cited from earlier work
MRSA = conditions: MRSA; cited from earlier work
[3] = test system: Gram-negative bacteria, such as E. coli and fungi; conditions: cited from earlier work
MDA-MB-231 cells = conditions: cited from earlier work
Sarcina lutea = conditions: cited from earlier work

Compound: CC(C)=CCC[C@]1(C)[C@@H](CC=C(C)C)C[C@@]2(CC=C(C)C)C(=O)[C@]1(C(=O)C(C)C)C(=O)C(CC=C(C)C)=C2O [hyperforin]
- MIC (E. faecalis): 1 µg/mL (≈ 1.86 µM)
- MIC (S. aureus): 0.1 mg/L and 0.19 μM
- MIC (S. aureus; listed as Hyperforin): 50 mg/L (≈ 93.1 µM)
- IC50 (leukemia U937 cells): 1.8 µM
- IC50 (K-562 cells): 21 µM
- IC50 [1]: 37 µM
- MIC [2]: 0.1 mg/L and 0.19 μM
- MIC (MRSA): 1 µg/mL (≈ 1.86 µM)
- MIC [3]: 400 µg/mL (≈ 745 µM)
- IC50 (MDA-MB-231 cells): 12 µM
- MIC (Sarcina lutea): 0.1 mg/L and 0.19 μM
